These results are taken from US6903130B1, “Pyrrolidineacetamide derivative alone or in combination for treatment of cns disorders” (UCB S.A., priority 1999, dated 2005).

SMILES strings stand for the structures. Read-outs that look alike come from different tables or passages of the source.

One data set concerns sound-sensitive mice. Briefly: Rotarod test in sound-sensitive mice. For orientation: Falling from the rotarod earlier than controls is read as motor impairment.
The subject of the next data set is amygdala-kindled rats. As to the kind of experiment: Protection against secondarily generalized motor seizures in amygdala-kindled rats. The format is in vivo, rat. The following applies: for ED50: Rattus norvegicus, ip, read-out: ED50, protection against secondarily generalized motor seizures. The source says:
The purpose of this study was to evaluate the pharmacodynamic interaction between valproate levetiracetam in preventing secondarily generalized motor seizures in amygdala-kindled rats, a model that has repeatedly been proposed to reflect complex partial seizures with secondarily generalization in man ([…]. & al., Exp. Neurol. […] McNamara J. O., Ann. of Neurol. (1984), 16 (suppl.), […]-[…]). In this model, focal electrical kindling of amygdala in rats induces the development of electrical seizure activity ([…] amygdala and behavioral seizures, generally evolving through facial clonus, head nodding, forelimb clonus, rearing and fully kindled seizures with rearing and falling accompanied by generalized clonic seizures (Racine R. J., Electroencephalogr. Clin. Neurophysiol. (1972), 32, 281-294). […] Neurol. […] Two days later, drugs were tested. The behavioral effect of stimulation was graded according to the score of Racine (Racine R. J., Electroencephalogr. Clin. Neurophysiol. (1972), 32, 281-294).

In data set [1] the test system is rats with hyperactivity induced by a mixture of dexamphetamine-chlordiazepoxide. As to the kind of experiment: Y-maze test, DEX-CDP hyperactivity, levetiracetam and valproate alone or combined (Example 6). The following applies: median (Q1-Q3). The format is in vivo, rat. From the text:
The purpose of the present experiment was to study the effects of levetiracetam administered alone or in combination with valproate on the hyperactivity induced in rats by a mixture of dexamphetamine-chlordiazepoxide (DEX-CDP) evaluated in a Y-shaped maze apparatus, a test recognized as a model for mania. Increased motor activity is a frequent symptom of manic disorders and, therefore, is often used as a model of mania in laboratory animals. Lithium, a medicine approved by the FDA in the prophylaxis and the treatment of bipolar disorders and mania, and valproate, indicated for the treatment of manic episodes associated with bipolar disorders, have been shown active in this model of mania (Vale A. L. & Ratcliffe F., Psychopharmacol. (1987), 91, 352-355; Cao B. J. & Peng N. A., Eur. J. Pharmacol. (1993), 237, 177-181).
Hyperactivity was induced in male Sprague Dawley rats weighing 210-290 g (n 13 or 15 per group) by a mixture of dexamphetamine-chlordiazepoxide as described by Vale A. L. (Vale A. L. & Ratcliffe F., Psychopharmacol. (1987), 91, 352-355). […]
Each rat was placed in the center of the Y-maze (with each arm 40 cm long and 15 cm wide with 35 cm walls) constructed in gray plexiglas. The number of visits into the arms was recorded over a 5 minutes period as an index of activity.
The results were expressed as median with the first and third quartile. […]

In general, ED50 refers to the dose at which the effect has come halfway, by size or by number of responders. Take `CCCC(CCC)C(=O)[O-].[Na+]` [Valproate, sodium valproate]: in the data set on sound-sensitive mice (valproate 122 mg/kg + saline (treatment protecting 50% of the mice)), the “Impairment in the performance within the rotarod test” value is given as 30%. Moreover, the ED50 with amygdala-kindled rats (compound alone, i.p., LOGIT-LOG DOSE regression) turned out to be 197 mg/kg. For the same molecule, the “Number of arms visited” value in data set [1] (valproate 150 mg/kg i.p. + DEX-CDP mixture) is 41 (18-49).
In the case of `CC[C@@H](C(N)=O)N1CCCC1=O` [Levetiracetam, (S)-(−)α-ethyl-2-oxo-1-pyrrolidineacetamide], the “ED50 (TD50), impairment of rotarod performance” value in the data set with sound-sensitive mice (compound alone, i.p., sound-sensitive mice) stood at 360.7 mg/kg. In addition, the “animals showing an impairment of the rotarod performance” value with sound-sensitive mice (levetiracetam 5.5 mg/kg i.p. alone, inferred from dose-response relation) amounted to 4%. Moreover, the ED50 in the data set with amygdala-kindled rats worked out at 307 mg/kg. Also, the “Calculated proportion of animals protected” value with amygdala-kindled rats (levetiracetam 17 mg/kg alone) is on record as 7%; in the data set with amygdala-kindled rats (levetiracetam 54 mg/kg alone), 18%; in the data set on amygdala-kindled rats (levetiracetam 108 mg/kg alone), 28.5%. Moreover, the “Number of arms visited” value in data set [1] (levetiracetam 17 mg/kg i.p. + DEX-CDP mixture) is listed as 46 (41-49).
